Patent publication US20150031668A1, “CHROMAN DERIVATIVES AS TRPM8 INHIBITORS” (AMGEN INC., priority 2013, published 2015)
Counter-ions that a name gives are not always drawn.

target: T1, human TRPM8 (Homo sapiens, UniProt Q7Z2W7); test: Luminescence readout assay for measuring intracellular calcium (aequorin, CHO cells expressing human TRPM8; icilin, L-menthol or cold activation); type: cell-based; conditions: CHO cells expressing human TRPM8, icilin activation (1 μM), aequorin luminescence; read-out: hTRPM8 IC50
T1 construct: expressed in transfected cells; host or cells: Chinese hamster ovary (CHO) cells, T-REx tetracycline-inducible expression system (Invitrogen); co-transfected with pcDNA3.1 aequorin
T1 sequence (Q7Z2W7 whole entry): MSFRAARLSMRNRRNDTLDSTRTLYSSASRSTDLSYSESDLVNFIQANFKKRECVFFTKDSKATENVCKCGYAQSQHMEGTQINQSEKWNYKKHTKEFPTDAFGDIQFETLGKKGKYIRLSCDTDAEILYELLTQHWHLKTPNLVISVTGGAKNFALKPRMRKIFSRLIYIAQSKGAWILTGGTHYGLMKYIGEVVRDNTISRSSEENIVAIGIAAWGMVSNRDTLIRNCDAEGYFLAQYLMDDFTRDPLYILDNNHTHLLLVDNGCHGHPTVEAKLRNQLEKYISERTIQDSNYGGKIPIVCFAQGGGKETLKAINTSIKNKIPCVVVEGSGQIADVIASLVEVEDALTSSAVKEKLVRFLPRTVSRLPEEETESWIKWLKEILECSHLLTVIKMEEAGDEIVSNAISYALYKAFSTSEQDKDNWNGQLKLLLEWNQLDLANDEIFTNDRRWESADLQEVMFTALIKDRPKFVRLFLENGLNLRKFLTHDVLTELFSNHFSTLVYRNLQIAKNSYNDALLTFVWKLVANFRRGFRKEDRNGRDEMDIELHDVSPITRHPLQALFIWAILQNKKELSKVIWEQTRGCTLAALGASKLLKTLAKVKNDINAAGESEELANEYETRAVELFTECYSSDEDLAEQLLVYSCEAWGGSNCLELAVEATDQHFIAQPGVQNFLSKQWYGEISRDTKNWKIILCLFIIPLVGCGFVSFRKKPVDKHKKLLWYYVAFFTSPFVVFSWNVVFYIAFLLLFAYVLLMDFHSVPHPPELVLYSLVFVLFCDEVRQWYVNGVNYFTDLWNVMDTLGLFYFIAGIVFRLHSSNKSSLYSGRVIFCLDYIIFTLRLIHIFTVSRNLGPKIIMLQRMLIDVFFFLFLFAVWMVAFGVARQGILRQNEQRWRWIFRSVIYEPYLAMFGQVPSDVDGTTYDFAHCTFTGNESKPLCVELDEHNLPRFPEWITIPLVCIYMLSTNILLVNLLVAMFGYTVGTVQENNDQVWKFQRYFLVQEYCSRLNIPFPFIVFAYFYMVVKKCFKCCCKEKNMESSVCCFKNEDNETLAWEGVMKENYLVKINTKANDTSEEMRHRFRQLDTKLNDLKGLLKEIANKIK
In short: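 Activation was by 1 μM icilin, 100 μM L-menthol (test compound 2.5 min ahead) or cold buffer below 10° C (compound 1 min ahead). Calcium rise measured as aequorin luminescence in CHO cells with tetracycline-inducible human TRPM8.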

| IC50 | Compound |
| --- | --- |
| 134 nM | O=C(N[C@]1(c2ccc(OC(F)(F)F)c(F)c2)CCOc2cccnc21)c1ncco1 [Example 189, (S)-N-(4-(3-fluoro-4-(trifluoromethoxy)phenyl)-3,4-dihydro-2H-pyrano[3,2-b]pyridin-4-yl) oxazole-2-carboxamide] |
| 152 nM | O=C(N[C@]1(c2ccc(OC(F)(F)F)c(F)c2)CCOc2cccnc21)c1cnsc1 [Example 190, (S)-N-(4-(3-fluoro-4-(trifluoromethoxy)phenyl)-3,4-dihydro-2H-pyrano[3,2-b]pyridin-4-yl) isothiazole-4-carboxamide] |
| 11 nM | CCc1cc(C(=O)N[C@]2(c3ccc(OC(F)(F)F)c(F)c3)CCOc3cccnc32)ccc1C(=O)OC [Example 191, (S)-methyl 2-ethyl-4-((4-(3-fluoro-4-(trifluoromethoxy)phenyl)-3,4-dihydro-2H-pyrano[3,2-b]pyridin-4-yl)carbamoyl) benzoate] |
| 94 nM | CCOC(=O)c1cc(C(=O)N[C@]2(c3ccc(OC(F)(F)F)c(F)c3)CCOc3cccnc32)cc(C(=O)OCC)c1 [Example 192, (S)-diethyl 5-((4-(3-fluoro-4-(trifluoromethoxy)phenyl)-3,4-dihydro-2H-pyrano[3,2-b]pyridin-4-yl)carbamoyl) isophthalate] |
| 584 nM | COC(=O)c1ccn(CC(=O)N[C@]2(c3ccc(OC(F)(F)F)c(F)c3)CCOc3cccnc32)c1 [Example 193, (S)-melhyl 1-(2-((4-(3-fluoro-4-(trifluoromethoxy)phenyl)-3,4-dihydro-2H-pyrano[3,2-b]pyridin-4-yl)amino)-2-oxoethyl)-1H-pyrrole-3-carboxylate] |
| 44 nM | O=C(N[C@]1(c2ccc(Cl)c(Cl)c2)CCOc2cccnc21)c1ccc(=O)[nH]c1 [Example 194, (S)-N-(4-(3,4-dichlorophenyl)-3,4-dihydro-2H-pyrano[3,2-b]pyridin-4-yl)-6-oxo-1,6-dihydropyridine-3-carboxamide] |
| 6 nM | NC(=O)c1ccc(C(=O)N[C@]2(c3ccc(OC(F)(F)F)c(F)c3)CCOc3cccnc32)cc1 [Example 195, (S)-N1-(4-(3-fluoro-4-(trifluoromethoxy)phenyl)-3,4-dihydro-2H-pyrano[3,2-b]pyridin-4-yl) terephthalamide 2,2,2-trifluoroacetate] |
| 7 nM | COC(=O)c1cc2ccc(C(=O)N[C@]3(c4ccc(OC(F)(F)F)c(F)c4)CCOc4cccnc43)cc2n1C [Example 196, (S)-methyl 6-((4-(3-fluoro-4-(trifluoromethoxy)phenyl)-3,4-dihydro-2H-pyrano[3,2-b]pyridin-4-yl)carbamoyl)-1-methyl-1H-indole-2-carboxylate] |
| 92 nM | O=C(N[C@]1(c2ccc(OC(F)(F)F)c(F)c2)CCOc2cccnc21)c1ccc(C(=O)O)c(Cl)c1 [Example 197, (S)-2-chloro-4-((4-(3-fluoro-4-(trifluoromethoxy)phenyl)-3,4-dihydro-2H-pyrano[3,2-b]pyridin-4-yl)carbamoyl) benzoic acid 2,2,2-trifluoroacetate] |
| 35 nM | O=C(N[C@]1(c2ccc(OC(F)(F)F)c(F)c2)CCOc2cccnc21)c1cscn1 [Example 198, (S)-N-(4-(3-fluoro-4-(trifluoromethoxy)phenyl)-3,4-dihydro-2H-pyrano[3,2-b]pyridin-4-yl) thiazole-4-carboxamide] |
| 12 nM | Cc1cc([C@@]2(NC(=O)c3ccc(=O)[nH]c3)CCOc3cccnc32)ccc1OC(F)(F)F [Example 199, (S)-N-(4-(3-methyl-4-(trifluoromethoxy)phenyl)-3,4-dihydro-2H-pyrano[3,2-b]pyridin-4-yl)-6-oxo-1,6-dihydropyridine-3-carboxamide] |
| 163 nM | O=C(N[C@]1(c2ccc(OC(F)(F)F)c(F)c2)CCOc2cccnc21)c1cc(Cl)on1 [Example 200, (S)-5-chloro-N-(4-(3-fluoro-4-(trifluoromethoxy)phenyl)-3,4-dihydro-2H-pyrano[3,2-b]pyridin-4-yl) isoxazole-3-carboxainide] |
| 21 nM | COC(=O)c1ccnc(C(=O)N[C@]2(c3ccc(OC(F)(F)F)c(F)c3)CCOc3cccnc32)c1 [Example 201, (S)-methyl 2-((4-(3-fluoro-4-(trifluoromethoxy)phenyl)-3,4-dihydro-2H-pyrano[3,2-b]pyridin-4-yl)carbamoyl) isonicotinate] |
| 27 nM | C[C@@H](O)Cn1cc(C(=O)N[C@]2(c3ccc(OC(F)(F)F)c(F)c3)CCOc3cccnc32)ccc1=O [Example 202, N-((S)-4-(3-fluoro-4-(trifluoromethoxy)phenyl)-3,4-dihydro-2H-pyrano[3,2-b]pyridin-4-yl)-1-((R)-2-hydroxypropyl)-6-oxo-1,6-dihydropyridine-3-carboxamide] |
| 74 nM | O=C(N[C@]1(c2ccc(OC(F)(F)F)c(F)c2)CCOc2cccnc21)c1ccc(Br)s1 [Example 203, (S)-5-bromo-N-(4-(3-fluoro-4-(trifluoromethoxy)phenyl)-3,4-dihydro-2H-pyrano[3,2-b]pyridin-4-yl) thiophene-2-carboxamide] |
| 4 nM | O=C(N[C@]1(c2ccc(C(F)(F)F)cc2)CCOc2cccnc21)c1cc(F)c(O)c(F)c1 [Example 205, (S)-3,5-difluoro-4-hydroxy-N-(4-(4-(trifluoromethyl)phenyl)-3,4-dihydro-2H-pyrano[3,2-b]pyridin-4-yl) benzamide] |
| 13 nM | O=C(N[C@]1(c2ccc(OC(F)(F)F)c(F)c2)CCOc2cccnc21)c1ccc(Br)cn1 [Example 206, (S)-5-bromo-N-(4-(3-fluoro-4-(trifluoromethoxy)phenyl)-3,4-dihydro-2H-pyrano[3,2-b]pyridin-4-yl) picolinamide] |
| 1 nM | O=C(N[C@]1(c2ccc(OC(F)(F)F)c(F)c2)CCOc2cccnc21)c1cc(F)c(O)c(F)c1 [Example 207, (S)-3,5-difluoro-N-(4-(3-fluoro-4-(trifluoromethoxy)phenyl)-3,4-dihydro-2H-pyrano[3,2-b]pyridin-4-yl)-4-hydroxybenzamide] |
| 11 nM | O=C(N[C@]1(c2ccc(OC(F)(F)F)c(F)c2)CCOc2cccnc21)c1ccc(Br)o1 [Example 208, (S)-5-bromo-N-(4-(3-fluoro-4-(trifluoromethoxy)phenyl)-3,4-dihydro-2H-pyrano[3,2-b]pyridin-4-yl)furan-2-carboxamide] |
| 45 nM | COC(=O)c1cc2ccc(C(=O)N[C@]3(c4ccc(OC(F)(F)F)c(F)c4)CCOc4cccnc43)cc2[nH]1 [Example 209, (S)-methyl 6-((4-(3-fluoro-4-(trifluoromethoxy)phenyl)-3,4-dihydro-2H-pyrano[3,2-b]pyridin-4-yl)carbamoyl)-1H-indole-2-carboxylate] |
| 2310 nM | O=C(N[C@]1(c2ccc(OC(F)(F)F)cc2)CCOc2cccnc21)c1ncc[nH]1 [Example 210, (S)-N-(4-(4-(trifluoromethoxy)phenyl)-3,4-dihydro-2H-pyrano[3,2-b]pyridin-4-yl)-1H-imidazole-2-carboxamide formate] |
| 336 nM | O=C(N[C@]1(c2ccc(OC(F)(F)F)cc2)CCOc2cccnc21)c1cc[nH]n1 [Example 211, (S)-N-(4-(4-(trifluoromethoxy)phenyl)-3,4-dihydro-2H-pyrano[3,2-b]pyridin-4-yl)-1H-pyrazole-3-carboxamide formate] |
| 1690 nM | O=C(N[C@]1(c2ccc(OC(F)(F)F)cc2)CCOc2cccnc21)c1nnc[nH]1 [Example 212, (S)-N-(4-(4-(trifluoromethoxy)phenyl)-3,4-dihydro-2H-pyrano[3,2-b]pyridin-4-yl)-4H-1,2,4-triazole-3-carboxamide formate] |
| 81 nM | O=C(N[C@]1(c2ccc(OC(F)(F)F)cc2)CCOc2cccnc21)c1ccns1 [Example 213, (S)-N-(4-(4-(trifluoromethoxy)phenyl)-3,4-dihydro-2H-pyrano[3,2-b]pyridin-4-yl)isothiazole-5-carboxamide formate] |
| 190 nM | O=C(N[C@]1(c2ccc(OC(F)(F)F)cc2)CCOc2cccnc21)c1cnns1 [Example 214, (S)-N-(4-(4-(trifluoromethoxy)phenyl)-3,4-dihydro-2H-pyrano[3,2-b]pyridin-4-yl)-1,2,3-thiadiazole-5-carboxamide formate] |
| 270 nM | O=C(N[C@]1(c2ccc(OC(F)(F)F)cc2)CCOc2cccnc21)c1cc2cccnc2[nH]1 [Example 216, (S)-N-(4-(4-(trifluoromethoxy)phenyl)-3,4-dihydro-2H-pyrano[3,2-b]pyridin-4-yl)-1H-pyrrolo[2,3-b] pyridine-2-carboxamide formate] |
| 46 nM | O=C(N[C@]1(c2ccc(OC(F)(F)F)cc2)CCOc2cccnc21)c1c[nH]c2ncccc12 [Example 217, (S)-N-(4-(4-(trifluoromethoxy)phenyl)-3,4-dihydro-2H-pyrano[3,2-b]pyridin-4-yl)-1H-pyrrolo[2,3-b] pyridine-3-carboxamide fonnate] |
| 10 nM | O=C(N[C@]1(c2ccc(OC(F)(F)F)cc2)CCOc2cccnc21)c1ccnc2[nH]ccc12 [Example 218, (S)-N-(4-(4-(trifluoromethoxy)phenyl)-3,4-dihydro-2H-pyrano[3,2-b]pyridin-4-yl)-1H-pyrrolo[2,3-b] pyridine-4-carboxamide formate] |
| 11 nM | O=C(N[C@]1(c2ccc(OC(F)(F)F)cc2)CCOc2cccnc21)c1cc2ccccn2n1 [Example 219, (S)-N-(4-(4-(trifluoromethoxy)phenyl)-3,4-dihydro-2H-pyrano[3,2-b]pyridin-4-yl) pyrazolo[1,5-a] pyridine-2-carboxainide formate] |
| 16 nM | O=C(N[C@]1(c2ccc(OC(F)(F)F)cc2)CCOc2cccnc21)c1cc2n(n1)CCCO2 [Example 220, (S)-N-(4-(4-(trifluoromethoxy)phenyl)-3,4-dihydro-2H-pyrano[3,2-b]pyridin-4-yl)-6,7-dihydro-5H-pyrazolo[5,1-b] [1,3]oxazine-2-carboxamide formate] |
